# Values of other authors as cited in patent US20200372978A1 (priority 2019, published 2020).
# Molecular target: T1, PPARγ (Homo sapiens, UniProt P37231)
# T1 sequence (P37231 1-505): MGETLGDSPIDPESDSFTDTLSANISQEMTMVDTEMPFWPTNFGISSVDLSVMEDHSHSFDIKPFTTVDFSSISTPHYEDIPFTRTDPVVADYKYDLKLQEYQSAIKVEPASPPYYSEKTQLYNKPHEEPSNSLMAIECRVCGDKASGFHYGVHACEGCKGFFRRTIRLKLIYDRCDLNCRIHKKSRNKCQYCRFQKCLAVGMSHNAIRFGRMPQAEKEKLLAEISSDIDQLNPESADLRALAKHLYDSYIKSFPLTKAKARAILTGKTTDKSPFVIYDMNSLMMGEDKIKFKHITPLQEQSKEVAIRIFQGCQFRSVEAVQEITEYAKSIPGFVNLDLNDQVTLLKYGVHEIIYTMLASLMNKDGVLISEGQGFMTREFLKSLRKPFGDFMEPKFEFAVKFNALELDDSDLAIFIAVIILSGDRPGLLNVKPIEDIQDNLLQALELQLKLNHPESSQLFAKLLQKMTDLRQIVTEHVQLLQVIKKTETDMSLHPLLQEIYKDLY
# Conditions: of the maximum effect of ROSI
smiles,measurement,value
CC(C)COC(=O)c1ccccc1C(=O)OCC(C)C [DiBP],maximum effect,25%
